Measured values reported in patent publication US8034373B2, “Methods and compositions for reducing oxidative stress in an animal” (Nestec S. A., priority 2004, dated 2011).
Marks after values point to notes of the source that are not given here.

How the values were obtained:
[1] = in words; cited from earlier work
[2] = system: canine lens epithelial cells; assay: UV-stressed canine lens epithelial cells supplemented with astaxanthin; type: cell-based
Description: An in vitro experiment may be performed using canine lens epithelial cells supplemented with astaxanthin at physiological levels.

[3] = Delayed-type hypersensitivity skin reactions; type: in vivo, dog; conditions: animals fed a diet containing astaxanthin vs control animals
Procedure: (§1) To assess the effect of astaxanthin supplementation on immune function, dogs may be fed a diet containing astaxanthin and/or Vitamin E for 16 weeks. The amount of astaxanthin used may be 0, 1, 5, 10, 20, and 40 mg per animal per day. Various assays may be performed to assess immune function.
Delayed-type hypersensitivity may also be assessed in animals given a diet supplemented with astaxanthin. In these assays, control animals and animals fed a diet containing astaxanthin are given cutaneous injections of saline, a mitogen or a vaccine of distemper virus. The animals are then assessed to measure the skin reactions to mitogen, virus and control. In animals fed a diet containing astaxanthin, the skin reactions are more robust for virus and mitogen than that found in control animals.

[4] = Plasma Vitamin E in exercising sled dogs
Procedure: (§2) Three groups of twelve dogs (mixed breed Alaskan sled dogs (husky pointer crosses)) were fed commercially available Pro Plan® Performance chicken and rice formula dog food as a basal diet, and each group was fed either: a placebo consisting of about 0.5 g maltodextrin, about 2 mg astaxanthin, or about 400 mg Vitamin E (alpha-tocopherol). Pro Plan® dog food is available from Nestlé Purina Pet Care Company in St. Louis, Mo. The dogs were trained three times a week on an exercise wheel for a period of six weeks. On the sixth week, the dogs rested for four days and then exercised three days in a row. Blood samples were collected before exercise on day one, immediately after exercise on day three, and at 24 hours and 48 hours after exercise. Plasma from the blood samples was analyzed for concentrations of malondialdehyde, F-2 isoprostanes, Vitamin E, creatine kinase activity as well as oxygen radical absorption capacity (ORAC).
(§3) All the dogs were maintained on the same basal diet (Purina Pro Plan® Performance chicken and rice formula) for one month prior to the onset and the entire duration of the experiment. Each dog was fed as an individual to maintain an optimal body condition score of 4/10.
(§4) Thirty-six sled dogs were housed at the Nestle Purina facility in Salcha, Ak. The dogs were divided into three groups of 12 dogs so that each group was alike in age, sex and ability distribution. A treatment was randomly assigned to each group by drawing from a hat. Group “A” was assigned about 400 mg Vitamin E/day, group “B” was assigned about 2 mg Astaxanthin/day and group “C” was assigned about 500 mg maltodextrin as a placebo. The people responsible for feeding, care, and training of the dogs were blind as to the identity of treatments until the completion of the study. Dogs were treated for six weeks before the onset of testing. They were also trained lightly for two sessions per week during this time period. Training sessions consisted of walking at 14 kilometers per hour for 2 hours in a 40-foot diameter circle tethered to a dog-walking wheel.
(§5) The testing took place over a six day period. On day one, pre-exercise blood samples were drawn from all the dogs. On day two, the dogs ran twelve km while pulling an all terrain vehicle (ATV) weighing 500 pounds. On day three, the dogs walked 16 miles on the dog wheel. On day four, the dogs again pulled the ATV for a distance of 12 kilometers. Immediately after exercise on day four, blood samples were drawn. Additional blood samples were drawn again at 24 hours and 48 hours after exercise. This sampling schedule was designed to examine changes in the parameters measured during exercise and during recovery. Samples were obtained by jugular venipuncture and collected into evacuated glass tubes containing sodium EDTA as an anticoagulant. Once collected they were kept on ice for not more than 10 minutes before they were centrifuged at 10,000 revolutions per minute (RPM) in 4° C. for a period of 10 minutes. The plasma was transferred into freezer vials where the dead space was replaced with gaseous nitrogen to decrease further oxidation during storage. The vials were then capped and immediately quenched in liquid nitrogen. The vials were recovered from liquid nitrogen and stored at −70° C. until analyzed. Each plasma sample was analyzed for malondialdehyde concentration using a standard HPLC, F2-isoprostane concentration utilizing a mass spectrometer and standard ELISA, Vitamin E concentration utilizing a standard HPLC, and Oxidative Radical Absorbance Capacity (ORAC test kit, Oxford Co.
(§6) F2 isoprostane and CK data was evaluated using a two way ANOVA for repeated measures. Post hoc comparisons were made using a student's t test corrected for repeated measures by the Bonneferroni method. Statistical significance was set at p<0.05. The other data was also evaluated using ANOVA. The abbreviation “se” used with respect to the data in the tables below refers to standard error.

[5] = system: natural killer (NK) cells; assay: NK cell cytotoxicity of cells from animals fed astaxanthin; type: in vivo, dog; conditions: animals fed a diet containing astaxanthin vs control animals
Procedure: as §1
In another assay, natural killer (NK) cell cytotoxicity is assessed for NK cells isolated from animals that are fed a diet including astaxanthin supplementation.

[6] = reported; in words; cited from earlier work
[7] = cited from earlier work
cataract formation = assay: In vivo cataract formation study, slit-lamp test; design: species or system dog; conditions: dogs, e.g. two year study; astaxanthin optionally with Vitamin E, lutein, zeaxanthin, zinc
Description: In a model study, 40 dogs could be chosen and randomly allocated to either the control group or to a treatment group receiving AAFCO recommended levels of antioxidants. The treatment group would receive astaxanthin and may also receive one or more of Vitamin E, lutein, zeaxanthin and zinc.

malondialdehyde = assay: Plasma malondialdehyde (MDA) in exercising sled dogs; type: in vivo, dog
Procedure: as §2, §3, §4, §5, §6

F2-isoprostane = assay: Plasma F2-isoprostane (F2I) in exercising sled dogs; type: in vivo, dog; conditions: for Plasma F2I compared to the placebo group: in words
Procedure: as §2, §3, §4, §5, §6

osteoarthritis = assay: Osteoarthritis diet study: plasma and synovial fluid markers, gait; type: in vivo, dog
Description: A diet supplemented with astaxanthin may be shown to reduce inflammation and associated pain in osteoarthritis. […] At 12 weeks of treatment, plasma and synovial fluid samples are taken from each animal and assayed for total antioxidant activity, and levels of malionaldehyde, prostaglandin, isoprostanes, MMPs and TIMPs. Additionally, the gait of the dogs may be assessed using standard force plate analyses.

total ORAC = assay: Plasma total Oxidative Radical Absorptive Capacity (ORAC) in exercising sled dogs; type: in vivo, dog; conditions: for ORAC improvement by supplementation: any of the time periods measured, in words
Procedure: as §2, §3, §4, §5, §6

[8] = system: peripheral blood mononuclear cells (PBMCs); assay: In vitro lymphoproliferation of stimulated PBMC; type: cell-based, dog; conditions: astaxanthin added directly to the media during stimulation
Creatine Kinase = assay: Plasma creatine kinase (CK) in exercising sled dogs; type: in vivo, dog
Procedure: as §2, §3, §4
as §5, with “The plasma was transferred into freezer vials where the dead space was replaced with gaseous nitrogen to decrease further oxidation during storage. The vials were then capped and immediately quenched in liquid nitrogen.” left out
F2 isoprostane and CK data was evaluated using a two way ANOVA for repeated measures. […] The other data was also evaluated using ANOVA. […]

[9] = Antibody titers against an antigen; type: in vivo, dog; conditions: animals fed a diet containing astaxanthin vs control animals
Procedure: as §1
Control animals and animals fed a diet containing astaxanthin may also be assessed for the robustness of the immune response against an antigen. For example, antibody titers against an antigen may be measured for control animals and animals fed a diet containing astaxanthin.

[10] = Pre-ex, sled dogs, about 2 mg astaxanthin/day or about 400 mg Vitamin E/day for six weeks

CC1=C(/C=C/C(C)=C/C=C/C(C)=C/C=C/C=C(C)/C=C/C=C(C)/C=C/C2=C(C)C(=O)[C@@H](O)CC2(C)C)C(C)(C)C[C@H](O)C1=O [ATX, astaxanthin]
solubility (lipid / water compartments of the cell) [1]: soluble in both lipid and water compartments of the cell | free radical formation and lipid peroxidation products ([2]; canine lens epithelia stressed with UV light, astaxanthin at physiological levels): significantly reduce | cell death ([2]; canine lens epithelial cells stressed with UV light): significantly less cell death | skin reactions to virus and mitogen (delayed-type hypersensitivity) [3]: more robust | Plasma Vitamin E concentration compared between treatment groups ([4]; dog, in vivo): no significant difference | NK cytotoxicity [5]: significantly increased | potency in preventing lipid peroxidation and scavenging free radicals [6]: more potent than Vitamin E or Vitamin C | in vitro oxygen radical absorptive capacity relative to Vitamin E [7]: 4 times | cataract formation and severity (slit-lamp test) (cataract formation): control group has significantly more cataract formation | Plasma MDA (mean) (malondialdehyde; 24 hour post, same treatment): 0.95 | Plasma MDA compared between treatment groups (malondialdehyde; 24 hours post exercise, in words): lower than either the placebo value or the Vitamin E value | Change in Plasma MDA from Baseline (malondialdehyde; Pre to 48 hour Post): −0.004 | Plasma F2 Isoprostane concentration (mean) (F2-isoprostane; 24 hour post, same treatment): 90 | Plasma F2 Isoprostane concentration (mean) (F2-isoprostane; 48 hour post, same treatment): 66 | Plasma F2 Isoprostane concentration (mean) (F2-isoprostane; Post-ex, same treatment): 52 | Plasma F2I compared to the placebo group (F2-isoprostane): lower F2I values immediately post-exercise and at 24 hours post-exercise | gait (force plate analyses) (osteoarthritis; 12 weeks, compared to controls): significant improvement in gait | isoprostanes, total antioxidant activity and MMPs (osteoarthritis; plasma and synovial fluid, 12 weeks, 1, 5, 10, 20, or 40 mg per animal per day): decrease | Plasma total ORAC (mean) (total ORAC; 24 hour post, same treatment): 5700 | Plasma total ORAC (mean) (total ORAC; 48 hour post, same treatment): 4800 | ORAC improvement by supplementation (total ORAC): not improved | proliferation of PBMC [8]: increases proliferation of cells significantly more | Plasma CK compared to the Vitamin E group (Creatine Kinase; all time periods but 24 hours post-exercise, in words): lower CK values than the Vitamin E group | antibody titers against an antigen [9]: higher antibody titers

Cc1c(C)c2c(c(C)c1O)CC[C@@](C)(CCC[C@H](C)CCC[C@H](C)CCCC(C)C)O2 [Vitamin E, alpha-tocopherol]
solubility (lipid / water compartments of the cell) [1]: lipid soluble only | Plasma Vitamin E (mean) ([4]; 24 hour post, same treatment): 4720 | Plasma Vitamin E (mean) ([4]; 48 hour post, same treatment): 4520 | Plasma Vitamin E (mean) ([4]; Post-ex, same treatment): 3540 | Plasma Vitamin E (mean) [4, 10]: 3370 | Plasma Vitamin E concentration compared between treatment groups ([4]; all time periods, in words): greatest | Plasma MDA (mean) (malondialdehyde; 24 hour post, same treatment): 1.44 | Plasma MDA (mean) (malondialdehyde; 48 hour post, same treatment): 1.44 | Plasma MDA (mean) (malondialdehyde; Post-ex, same treatment): 1.17 | Change in Plasma MDA from Baseline (malondialdehyde; Pre to 24 hour post): −0.071 | Change in Plasma MDA from Baseline (malondialdehyde; Pre to 48 hour Post): −0.069 | Change in Plasma MDA from Baseline (malondialdehyde; Pre to Post): −0.336* | Plasma MDA (mean) (malondialdehyde; [10]): 1.51 | Plasma F2 Isoprostane concentration (mean) (F2-isoprostane; 24 hour post, same treatment): 130 | Plasma F2 Isoprostane concentration (mean) (F2-isoprostane; 48 hour post, same treatment): 78 | Plasma F2 Isoprostane concentration (mean) (F2-isoprostane; Post-ex, same treatment): 223 | Plasma F2 Isoprostane concentration (mean) (F2-isoprostane; [10]): 144 | Plasma F2I compared to the placebo group (F2-isoprostane): not different from the placebo value except at the 24 hour post-exercise time period where it was lower | Plasma total ORAC (mean) (total ORAC; 24 hour post, same treatment): 7590 | Plasma total ORAC (mean) (total ORAC; 48 hour post, same treatment): 4840 | Plasma total ORAC (mean) (total ORAC; Post-ex, same treatment): 5850 | Plasma total ORAC (mean) (total ORAC; [10]): 7480 | ORAC improvement by supplementation (total ORAC): not improved | Plasma Creatine Kinase (mean) (Creatine Kinase; 24 hour post, same treatment): 184 | Plasma Creatine Kinase (mean) (Creatine Kinase; 48 hour post, same treatment): 204 | Plasma Creatine Kinase (mean) (Creatine Kinase; Post-ex, same treatment): 208 | Plasma Creatine Kinase (mean) (Creatine Kinase; [10]): 139
